According to patent publication US8916553B2 (Bristol-Myers Squibb Company, priority 2010, dated 2014):

Molecular target: Human CYP17 (Homo sapiens (Human), UniProt P05093)
Experiment: CYP17 Total SPA Assay
Type: biochemical
Conditions: microsomes from HEK2 cells stably transfected with CYP17; 3H-Pregnenolone 1 uM; NADPH 2 mM; 45 minutes at room temperature
Description: CYP17 Total SPA Assay The assays were performed in U-bottom 384-well optiplates. […] The reaction was initiated by the combination of the microsomes and substrates in wells containing compound. The reaction was incubated at room temperature for 45 minutes and terminated by adding 7.5 μl of 0.2N HCl to each well. […] The plate was sealed and incubated overnight with shaking at 4° C. The beads were allowed to settle in the plate for 1 hour and the plate read on a TOPCOUNT® (Perkin-Elmer) plate reader. […] The final concentration of reagents in the assays are NADPH, 2 mM; 3H-Pregnenolone, 1 uM; microsomes, 1.25 ug/ml; […] Dose response curves were generated to determine the concentration required inhibiting 50% of enzyme activity (IC50). Compounds were dissolved at 10 mM in dimethylsulfoxide (DMSO) and evaluated at eleven concentrations, each in duplicate. IC50 values were derived by non-linear regression analysis. Table 22 below lists the IC50 values for the following Examples of this invention measured in the Total CYP17 SPA Assay hereinabove.

Chain of Human CYP17 (P05093 whole entry): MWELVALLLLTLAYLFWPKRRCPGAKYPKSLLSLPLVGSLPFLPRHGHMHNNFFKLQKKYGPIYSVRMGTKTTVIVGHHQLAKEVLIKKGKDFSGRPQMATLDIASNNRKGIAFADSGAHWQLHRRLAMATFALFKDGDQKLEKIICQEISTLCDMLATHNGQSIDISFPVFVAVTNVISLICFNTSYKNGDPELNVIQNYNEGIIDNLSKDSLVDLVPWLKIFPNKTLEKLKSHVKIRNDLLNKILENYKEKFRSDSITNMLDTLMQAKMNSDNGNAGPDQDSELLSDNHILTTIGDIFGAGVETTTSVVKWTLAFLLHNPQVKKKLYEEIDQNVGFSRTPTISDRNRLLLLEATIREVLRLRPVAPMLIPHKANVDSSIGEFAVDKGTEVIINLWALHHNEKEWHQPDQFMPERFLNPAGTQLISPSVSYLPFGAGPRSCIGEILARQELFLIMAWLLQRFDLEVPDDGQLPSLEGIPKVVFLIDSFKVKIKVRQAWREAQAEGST

SMILES	IC50 [nM]
COc1cc(NS(=O)(=O)c2cn(C)c(C)n2)ccc1-c1cncc2ccccc12 [Example 158, N-(4-(isoquinolin-4-yl)-3-methoxyphenyl)-1,2-dimethyl-1H-imidazole-4-sulfonamide]	118
CS(=O)(=O)Nc1ccc(-c2cnccc2Cl)c(OCCF)c1 [Example 236, N-(4-(4-chloropyridin-3-yl)-3-(2-fluoroethoxy)phenyl)methanesulfonamide]	174
COc1cc(NS(C)(=O)=O)ccc1-c1cnccc1C1CC1 [Example 225, N-(4-(4-cyclopropylpyridin-3-yl)-3-methoxyphenyl)methanesulfonamide]	2.1
Cc1ccncc1-c1ccc(NS(=O)(=O)C2CC2)cc1OCC(F)(F)F [Example 184]	7.7
CS(=O)(=O)Nc1ccc(-c2cncc3ccccc23)c(OCC(F)(F)F)c1 [Example 232, N-(4-(isoquinolin-4-yl)-3-(2,2,2-trifluoroethoxy)phenyl)methanesulfonamide]	59
CS(=O)(=O)Nc1ccc(-c2cncc3ncccc23)c(OCCF)c1 [Example 239, N-(3-(2-fluoroethoxy)-4-(1,7-naphthyridin-5-yl)phenyl)methanesulfonamide]	51

The remaining lines, values ahead:

IC50 [nM]	SMILES
100	COc1cc(NS(=O)(=O)CC(C)C)ccc1-c1cncnc1C [Example 164]
2.5	COc1cc(NS(C)(=O)=O)ccc1-c1cnccc1C [Example 217, N-(3-methoxy-4-(4-methyl-3-pyridinyl)phenyl)methanesulfonamide]
49	CCc1ncncc1-c1ccc(NS(C)(=O)=O)cc1OC [Example 218, N-(4-(4-ethylpyrimidin-5-yl)-3-methoxyphenyl) methanesulfonamide]
103	COc1cc(NS(C)(=O)=O)ccc1-c1cncnc1C(C)C [Example 220, N-(4-(4-isopropylpyrimidin-5-yl)-3-methoxyphenyl) methanesulfonamide]

Test system: testosterone levels
Experiment: 1-Day Cyno PK/PD Study
Type: in vivo
Conditions: cynomolgus monkeys; single oral dose of 5 mg/Kg in 80% PEG-400/water; blood samples over a 24 hour period (FIG. 1)
Description: 1-Day Cyno PK/PD Study Protocol
Animals: All procedures involving animals and their care were conducted in conformity with the guidelines that are in compliance with the Bristol-Myers Squibb Institutional Animal Care and Use Committee. Fully mature male cynomolgus monkeys (>4 yrs of age; 5-6 kg) were from an in-house colony. All the monkeys used had chronically implanted femoral vein access ports. For oral studies, all animals were fasted overnight prior to dosing and were fed 4 hr after dosing. All animals had free access to water and were conscious throughout the study.
Drug: For all oral pharmacokinetic studies in cynomolgus monkeys, the tested compound was formulated in polyethylene glycol (PEG 400): water (80:20, v:v) at concentrations of 1-5 mg/mL. […]
Sampling: Blood samples were collected from the femoral port, at 15, 30, and 45 min, and 1, 2, 4, 6, 8, 12, 24, 30, and 48 hr after oral administration. […] The plasma fraction was immediately separated by centrifugation (14,000 rpm, 10 min, 4° C.), frozen on dry ice, and stored at −20° C. until the samples were analyzed.
Analysis of Tested Compound: Plasma samples were thawed and treated with two volumes of acetonitrile containing internal standard. After centrifugation to remove precipitated proteins, an aliquot of supernatant was analyzed by LC/MS/MS. […]

SMILES	testosterone levels
COc1cc(NS(C)(=O)=O)ccc1-c1cnccc1C [Example 217, N-(3-methoxy-4-(4-methyl-3-pyridinyl)phenyl)methanesulfonamide]	reduced
